pIC50: −log10 of the molar value.
Target: T1, USP25 (USP25-His6, Boston Biochem E-546) (Homo sapiens, UniProt Q9UHP3)
T1 construct: His6; purchased Boston Biochem E-546
T1 sequence (Q9UHP3 1-1055): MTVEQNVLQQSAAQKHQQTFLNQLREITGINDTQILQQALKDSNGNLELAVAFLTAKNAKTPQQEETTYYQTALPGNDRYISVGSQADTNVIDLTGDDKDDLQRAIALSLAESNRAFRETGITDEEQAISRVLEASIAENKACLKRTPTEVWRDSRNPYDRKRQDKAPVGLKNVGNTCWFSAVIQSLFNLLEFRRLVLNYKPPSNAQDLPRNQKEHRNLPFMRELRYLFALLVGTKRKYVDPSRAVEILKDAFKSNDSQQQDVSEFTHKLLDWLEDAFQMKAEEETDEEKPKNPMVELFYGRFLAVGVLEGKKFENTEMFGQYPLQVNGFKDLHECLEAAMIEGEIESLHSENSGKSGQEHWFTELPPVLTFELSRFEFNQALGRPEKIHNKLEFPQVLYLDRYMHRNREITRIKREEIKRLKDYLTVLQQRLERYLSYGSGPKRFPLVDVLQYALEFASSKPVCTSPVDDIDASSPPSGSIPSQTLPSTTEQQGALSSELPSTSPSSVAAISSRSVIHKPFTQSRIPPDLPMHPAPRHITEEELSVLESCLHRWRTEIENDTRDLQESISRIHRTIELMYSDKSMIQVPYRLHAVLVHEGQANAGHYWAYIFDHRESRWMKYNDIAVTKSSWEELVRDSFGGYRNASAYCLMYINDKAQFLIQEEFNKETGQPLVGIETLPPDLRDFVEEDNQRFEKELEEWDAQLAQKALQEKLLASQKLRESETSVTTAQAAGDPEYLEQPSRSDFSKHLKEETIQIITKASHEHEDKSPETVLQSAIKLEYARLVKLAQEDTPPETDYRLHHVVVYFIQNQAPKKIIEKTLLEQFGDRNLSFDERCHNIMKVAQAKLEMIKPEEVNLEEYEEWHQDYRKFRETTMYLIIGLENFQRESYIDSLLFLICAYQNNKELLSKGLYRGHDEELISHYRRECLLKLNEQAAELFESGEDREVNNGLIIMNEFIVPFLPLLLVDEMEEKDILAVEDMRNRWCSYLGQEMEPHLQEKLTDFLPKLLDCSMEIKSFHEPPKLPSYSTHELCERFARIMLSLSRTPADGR
Experiment: Ubiquitin-Rhodamine 110 Assay for USP25 Activity, Example A-2
Type: biochemical
Settings: Ubiquitin-Rhodamine 110 assay, Example A-2; read-out: USP25 A-2 IC50 range
Summary of the method: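 Inhibition is quantified as IC50 by 4-parameter fit of fluorescence (485/535 nm) from Ub-Rh110 hydrolysis. Enzyme USP25-His6 at 75 pM with 30 min compound preincubation, then 25 nM substrate for 45 min at room temperature in pH 8.0 Tris buffer containing BME.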

Cc1ccc2c(N)c(C(=O)N[C@H]3COc4cc(N5CC6CNC[C@@](C)(C5)O6)cc(F)c4C3)sc2n1 [Example 414, 3-amino-N-[(3R)-5-fluoro-7-[(1S)-1-methyl-9-oxa-3,7-diazabicyclo[3.3.1]nonan-3-yl]-3,4-dihydro-2H-1-benzopyran-3-yl]-6-methylthieno[2,3-b]pyridine-2-carboxamide]
pIC50: 5.70 to 6.70

Cc1ccc2c(N)c(C(=O)N[C@H]3COc4cc(N5C[C@H](OC(F)(F)F)[C@@H](N)C5)ccc4C3)sc2n1 (single isomer, unassigned) [Example 3-10]
pIC50: 5.70 to 6.70

O=C(N[C@H]1COc2cc(N3CCNCC3)ccc2C1)c1cnn2ccccc12 [Example 460, (R)-N-(7-(piperazin-1-yl)chroman-3-yl)pyrazolo[1,5-a]pyridine-3-carboxamide]
pIC50: < 5.70

O=C(N[C@H]1COc2cc(N3CCNCC3)ccc2C1)c1ccc(NCc2ccccn2)nc1 [Example 470, (R)-N-(7-(piperazin-1-yl)chroman-3-yl)-6-((pyridin-2-ylmethyl)amino)nicotinamide]
pIC50: < 5.70

Cc1ccc2c(N)c(C(=O)N[C@H]3COc4cc(N5C[C@@H](N)[C@H](F)C5)ccc4C3)sc2n1 [Example 3-8, 3-amino-N-((R)-7-((3R,4R)-3-amino-4-fluoropyrrolidin-1-yl)chroman-3-yl)-6-methylthieno[2,3-b]pyridine-2-carboxamide]
pIC50: 5.70 to 6.70

O=C(N[C@H]1COc2cc(N3CCNCC3)ccc2C1)c1cnn2c(CO)cccc12 [Example 475, 7-(hydroxymethyl)-N-[(3R)-7-(piperazin-1-yl)-3,4-dihydro-2H-1-benzopyran-3-yl]pyrazolo[1,5-a]pyridine-3-carboxamide]
pIC50: < 5.70

Cc1ccc2c(N)c(C(=O)N[C@H]3COc4cc(N5CC6COCC(C5)C6(F)F)ccc4C3)sc2n1 [Example 5-4, 3-amino-N-((3R)-7-(9,9-difluoro-3-oxa-7-azabicyclo[3.3.1]nonan-7-yl)chroman-3-yl)-6-methylthieno[2,3-b]pyridine-2-carboxamide]
pIC50: 6.70 to 7.30

Cc1ccc2c(N)c(C(=O)N[C@H]3CCc4nc(N5C[C@H](N)[C@]6(CCCO6)C5)ccc4C3)sc2n1 [Example 390, 3-amino-N-[(6S)-2-[(5S,9S)-9-amino-1-oxa-7-azaspiro[4.4]nonan-7-yl]-5,6,7,8-tetrahydroquinolin-6-yl]-6-methylthieno[2,3-b]pyridine-2-carboxamide]
pIC50: < 5.70

Cc1ccc2c(N)c(C(=O)N[C@@H]3CCc4cc(N5CC6CNCC(C5)O6)ccc4C3)sc2n1 [Example 451, N-((2R)-6-(9-oxa-3,7-diazabicyclo[3.3.1]nonan-3-yl)-1,2,3,4-tetrahydronaphthalen-2-yl)-3-amino-6-methylthieno[2,3-b]pyridine-2-carboxamide]
pIC50: 5.70 to 6.70

Cc1ccc2c(N)c(C(=O)N[C@H]3COc4cc(N5CCN[C@@H](C(F)(F)F)C5)ccc4C3)sc2n1 [Example 3-11, 3-amino-6-methyl-N-((R)-7-((R)-3-(trifluoromethyl)piperazin-1-yl)chroman-3-yl)thieno[2,3-b]pyridine-2-carboxamide]
pIC50: 5.70 to 6.70

O=C(N[C@H]1COc2cc(N3CCNCC3)ccc2C1)c1ccc(NCc2ccc3c(c2)CCO3)nc1 [Example 472, (R)-6-(((2,3-dihydrobenzofuran-5-yl)methyl)amino)-N-(7-(piperazin-1-yl)chroman-3-yl)nicotinamide]
pIC50: 5.70 to 6.70

Source: patent US11524966B1 (Valo Early Discovery, Inc., priority 2017, dated 2022)
